Consider 18 compounds from PubChem BioAssay AID328 (DTP/NCI, 2004).

“And” between values parts separate entries of the source, which are not always exact repeats. Identical values can stand only once. Toxic doses and inconclusive results are not listed.

This test has as its system BDF1 mice, P388 leukemia ip, median survival T/C. The experiment in a line: NCI In Vivo Anticancer Drug Screen. Data for tumor model P388 Leukemia (intraperitoneal) in B6D2F1 (BDF1) mice. The conditions noted are these: endpoint: median survival time, higher = longer survival. The procedure, abridged:
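Antitumour effect was judged in vivo: survival in drug-treated mice, normalised to that of vehicle-dosed controls, gives the reported T/C.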

The mark [1] stands for this setting: dose: 100.0 mg/kg/injection, schedule: Q01DX001 (ip), vehicle: saline with Tween-80.
[2] abbreviates: dose: 400.0 mg/kg/injection, schedule: Q01DX001 (ip), vehicle: saline with Tween-80.
Setting [3] is: dose: 50.0 mg/kg/injection, schedule: Q01DX009 (ip), vehicle: saline with Tween-80.
Where [4] appears, read: dose: 100.0 mg/kg/injection, schedule: Q01DX009 (ip), vehicle: saline with Tween-80.
Setting [5] is: dose: 200.0 mg/kg/injection, schedule: Q01DX009 (ip), vehicle: saline with Tween-80.
[6] abbreviates: dose: 50.0 mg/kg/injection, schedule: Q01DX005 (ip), vehicle: saline with Tween-80.

With `NC(=O)NN=C(CS)CS`, the T/C reads like this: (dose: 6.25 mg/kg/injection, schedule: Q01DX009 (ip), vehicle: gum acacia) 101 % of control; (dose: 12.5 mg/kg/injection, schedule: Q01DX009 (ip), vehicle: gum acacia) 100 % of control; (dose: 25.0 mg/kg/injection, schedule: Q01DX009 (ip), vehicle: gum acacia) 102 % of control; (dose: 50.0 mg/kg/injection, schedule: Q01DX009 (ip), vehicle: gum acacia) 100 % of control.

Consider `COC(=O)C1C(c2ccccc2)=NC(c2ccccc2)C1C(=O)OC` (stereo not given), for which the T/C is 101 % of control under setting [1]; 96 % of control (dose: 200.0 mg/kg/injection, schedule: Q01DX001 (ip), vehicle: saline with Tween-80); 109 % of control under setting [2].

In the case of `COC(=O)C1=C(C(=O)OC)C(C(=O)OC)N2C=C(C)C=CC2=C1C(=O)OC` (stereo not given), the T/C by setting is: under setting [3], 102 % of control; under setting [4], 100 % of control; under setting [5], 98 % of control.

`NC(N)=N/N=C(/c1ccccc1)c1ccc(F)cc1`: the T/C by setting is: (dose: 1.2 mg/kg/injection, schedule: Q01DX009 (ip), vehicle: Klucel (hydroxypropylcellulose) (HPC)) 115 % of control; (dose: 5.0 mg/kg/injection, schedule: Q01DX009 (ip), vehicle: Klucel (hydroxypropylcellulose) (HPC)) 104 % of control and 105 % of control; (dose: 5.0 mg/kg/injection, schedule: Q01DX009 (ip), vehicle: saline) 95 % of control; (dose: 10.0 mg/kg/injection, schedule: Q01DX009 (ip), vehicle: Klucel (hydroxypropylcellulose) (HPC)) 100 % of control and 109 % of control; (dose: 10.0 mg/kg/injection, schedule: Q01DX009 (ip), vehicle: saline) 100 % of control; (dose: 20.0 mg/kg/injection, schedule: Q01DX009 (ip), vehicle: saline) 112 % of control.

Regarding `O=[N+]([O-])c1cc([N+](=O)[O-])c2nn(-c3ccccc3)[n+]([O-])c2c1`, the T/C was 100 % of control (dose: 25.0 mg/kg/injection, schedule: Q01DX009 (ip), vehicle: Klucel (hydroxypropylcellulose) (HPC)); 100 % of control (dose: 50.0 mg/kg/injection, schedule: Q01DX009 (ip), vehicle: Klucel (hydroxypropylcellulose) (HPC)); 90 % of control (dose: 100.0 mg/kg/injection, schedule: Q01DX009 (ip), vehicle: Klucel (hydroxypropylcellulose) (HPC)); 95 % of control (dose: 100.0 mg/kg/injection, schedule: Q04DX003 (ip), vehicle: Klucel (hydroxypropylcellulose) (HPC)); 100 % of control (dose: 200.0 mg/kg/injection, schedule: Q04DX003 (ip), vehicle: Klucel (hydroxypropylcellulose) (HPC)); 100 % of control (dose: 400.0 mg/kg/injection, schedule: Q04DX003 (ip), vehicle: Klucel (hydroxypropylcellulose) (HPC)).

Consider `CN(Cc1ccccc1)c1ccc(/C=C/c2ccnc3ccccc23)cc1`, for which the T/C (dose: 12.5 mg/kg/injection, schedule: Q01DX001 (ip), vehicle: saline with Tween-80) was 93 % of control; the T/C (dose: 25.0 mg/kg/injection, schedule: Q01DX001 (ip), vehicle: saline with Tween-80) was 89 % of control; the T/C (dose: 50.0 mg/kg/injection, schedule: Q01DX001 (ip), vehicle: saline with Tween-80) was 88 % of control; the T/C under setting [1] was 93 % of control; the T/C under setting [2] is 94 % of control.

As to `Cc1c(/C=C(\C#N)c2ccc([N+](=O)[O-])cc2)c(=O)n(-c2ccccc2)n1C`, the T/C is 103 % of control (dose: 100.0 mg/kg/injection, schedule: Q04DX003 (ip), vehicle: gum acacia); 100 % of control (dose: 200.0 mg/kg/injection, schedule: Q04DX003 (ip), vehicle: gum acacia); 100 % of control (dose: 400.0 mg/kg/injection, schedule: Q04DX003 (ip), vehicle: gum acacia).

Regarding `OB(O)C1=CC(c2ccccc2)(c2ccccc2)N=C1`, the T/C reads like this: (dose: 25.0 mg/kg/injection, schedule: Q01DX001 (ip), vehicle: saline sonified) 100 % of control; (dose: 50.0 mg/kg/injection, schedule: Q01DX001 (ip), vehicle: saline sonified) 100 % of control; (dose: 100.0 mg/kg/injection, schedule: Q01DX001 (ip), vehicle: saline sonified) 104 % of control.

As to `O=C(O)CC[n+]1c(/C=C/c2cc(Br)c(O)c(Br)c2)sc2ccccc21`, the T/C runs as follows: (dose: 50.0 mg/kg/injection, schedule: Q04DX003 (ip), vehicle: saline sonified) 100 % of control; (dose: 100.0 mg/kg/injection, schedule: Q04DX003 (ip), vehicle: saline sonified) 100 % of control; (dose: 200.0 mg/kg/injection, schedule: Q04DX003 (ip), vehicle: saline sonified) 100 % of control.

For the compound `CC(=O)C/C(C)=N/NC(=O)c1ccncc1`, where the note is “dose: 150.0 mg/kg/injection, schedule: Q01DX009 (ip), vehicle: saline with Tween-80”, the T/C is 90 % of control.

Consider `Cc1cc(O)c(C(c2ccc(Cl)cc2)c2c(O)cc(C)[nH]c2=O)c(=O)[nH]1`, for which the T/C was 108 % of control under setting [3], 108 % of control under setting [4] and 105 % of control under setting [5].

Consider `CCCCCCCCCCCCCC[n+]1ccccc1`, for which the T/C is 87 % of control (dose: 16.0 micrograms/kg/injection, schedule: Q01DX009 (ip), vehicle: saline with Tween-80); 100 % of control (dose: 32.0 micrograms/kg/injection, schedule: Q01DX009 (ip), vehicle: saline with Tween-80); 113 % of control (dose: 62.5 micrograms/kg/injection, schedule: Q01DX009 (ip), vehicle: saline); 115 % of control (dose: 62.5 micrograms/kg/injection, schedule: Q01DX010 (ip), vehicle: saline); 122 % of control (dose: 125.0 micrograms/kg/injection, schedule: Q01DX009 (ip), vehicle: saline); 110 % of control (dose: 250.0 micrograms/kg/injection, schedule: Q01DX010 (ip), vehicle: saline).

On to `O=C1C(Cl)=C(Nc2nccs2)C(=O)c2ccccc21`, for which the T/C reads like this: under setting [6], 102 % of control; (dose: 100.0 mg/kg/injection, schedule: Q01DX005 (ip), vehicle: saline with Tween-80) 107 % of control; (dose: 200.0 mg/kg/injection, schedule: Q01DX005 (ip), vehicle: saline with Tween-80) 118 % of control.

On to `CC1(C2CC2)NC(=O)NC1=O` (stereo not given), for which the T/C was 113 % of control (dose: 75.0 mg/kg/injection, schedule: Q01DX009 (ip), vehicle: saline); 113 % of control (dose: 100.0 mg/kg/injection, schedule: Q01DX001 (ip), vehicle: saline); 104 % of control (dose: 150.0 mg/kg/injection, schedule: Q01DX009 (ip), vehicle: saline); 104 % of control (dose: 200.0 mg/kg/injection, schedule: Q01DX001 (ip), vehicle: saline); 100 % of control (dose: 300.0 mg/kg/injection, schedule: Q01DX009 (ip), vehicle: saline); 104 % of control (dose: 400.0 mg/kg/injection, schedule: Q01DX001 (ip), vehicle: saline).

As to `O=c1[nH]nc(CF)c(=O)[nH]1`, the T/C is 100 % of control and 109 % of control (dose: 3.0 mg/kg/injection, schedule: Q01DX009 (ip), vehicle: saline); 118 % of control (dose: 6.0 mg/kg/injection, schedule: Q01DX009 (ip), vehicle: saline); 150 % of control (dose: 12.0 mg/kg/injection, schedule: Q01DX009 (ip), vehicle: saline); 154 % of control and 172 % of control (dose: 24.0 mg/kg/injection, schedule: Q01DX009 (ip), vehicle: saline).

Regarding `CC(C)=CCC/C(C)=C/CO`, the T/C is, setting by setting: (dose: 15.6 mg/kg/injection, schedule: Q01DX010 (ip), vehicle: saline) 100 % of control; (dose: 31.3 mg/kg/injection, schedule: Q01DX010 (ip), vehicle: saline) 100 % of control; (dose: 62.5 mg/kg/injection, schedule: Q01DX010 (ip), vehicle: saline) 113 % of control; (dose: 125.0 mg/kg/injection, schedule: Q01DX010 (ip), vehicle: saline) 118 % of control.

Turning to `C[N-]N(C)C(=O)[S-].C[N-]N(C)C(=O)[S-].C[N-]N(C)C(=O)[S-].[Co]`, the T/C (dose: 100.0 mg/kg/injection, schedule: Q04DX003 (ip), vehicle: saline with Tween-80) was 105 % of control.

For the compound `CCOC(=O)CCN(CCN(C)C)c1cc(O)c2c(c1O)C(=O)c1ccccc1C2=O`, under setting [6], the T/C was 123 % of control.
